Laboratory results as given in US10617656B2, “Methods of increasing the cytotoxicity of chemotherapeutic agents with multisubstrate inhibitors of histone, protein-Lys, polyamine acetylation, and polyamine metabolism” (Vanderbilt University, priority 2010, dated 2020).

Legend:
H358 lung cancer cells = assay type: cell-based; details: 3 days
Method: Control cells were left untreated. […] Control cells were left untreated.
Cells were given fresh inhibitor on the first, second, and third days of treatment and viability was measured on the 4th day (i.e. 3 days post start of treatment). […]
(A) Structure of Spd-3a. (B) Western analysis of histone H3K9-acetylation and total histone H3, measured in control, untreated H358 lung cancer cells “C” or in H358 cells incubated 12 hours in the presence of 50 μM Spd-2a or Spd-3a. Each lane represents 60 μg cellular protein. (C) [3H]-thymidine incorporation (counts per minute) into DNA of H358 cells during a 6 hour pulse beginning at 42 hours post-start of treatment. Treatments were as follows (bars 1-6 left to right): (1) control: no treatment; (2) CPT alone: 5 nM 18 hours; (3) 3a alone: 50 μM; (4-6) 3a+CPT: CPT (5 nm, 18 hours)+3a at indicated dose. After 18 hours, CPT was removed and medium was replaced with fresh medium containing Spd-3a at the indicated dose. Each bar represents the average of triplicates. (D) 3-day 96-well viability assay of H358 cells grown in the presence of increasing amounts of Spd-2a or Spd-3a, with or without CPT (5 nM 18 hours). […] Each data point represents the average of three wells.
Date of exp: Jul. […] Date of exp: Sep.
(§1) Cells were plated in 96-well plates at 2000 cells per well and treated with the indicated doses of spd-3a. Cell viability was measured by the MTS assay 3 days later.
DLD-1 cells or H358 cells were plated in 96-well plates at 2000 cells per well and treated with the indicated doses of (A) spm-3 or (B) spm-2. (C) Cell viability was measured by the MTS assay 3 days later. Similar experiment using GT41 fibroblasts with spm2 or spm 3. Each assay point represents an average of duplicates. […]

H358 cells = assay: Trypan blue exclusion viability assay; assay type: cell-based
p300 catalytic domain = molecular target: T1, p300 catalytic domain (Homo sapiens, UniProt Q09472); assay: 96-well fluorescent HAT assay kit (Active Motif), H3 peptide (5-23); assay type: biochemical
T1 construct: the catalytic domain of p300(965-1810); purchased Active Motif, Carlsbad, Calif
T1 sequence (Q09472 965-1810): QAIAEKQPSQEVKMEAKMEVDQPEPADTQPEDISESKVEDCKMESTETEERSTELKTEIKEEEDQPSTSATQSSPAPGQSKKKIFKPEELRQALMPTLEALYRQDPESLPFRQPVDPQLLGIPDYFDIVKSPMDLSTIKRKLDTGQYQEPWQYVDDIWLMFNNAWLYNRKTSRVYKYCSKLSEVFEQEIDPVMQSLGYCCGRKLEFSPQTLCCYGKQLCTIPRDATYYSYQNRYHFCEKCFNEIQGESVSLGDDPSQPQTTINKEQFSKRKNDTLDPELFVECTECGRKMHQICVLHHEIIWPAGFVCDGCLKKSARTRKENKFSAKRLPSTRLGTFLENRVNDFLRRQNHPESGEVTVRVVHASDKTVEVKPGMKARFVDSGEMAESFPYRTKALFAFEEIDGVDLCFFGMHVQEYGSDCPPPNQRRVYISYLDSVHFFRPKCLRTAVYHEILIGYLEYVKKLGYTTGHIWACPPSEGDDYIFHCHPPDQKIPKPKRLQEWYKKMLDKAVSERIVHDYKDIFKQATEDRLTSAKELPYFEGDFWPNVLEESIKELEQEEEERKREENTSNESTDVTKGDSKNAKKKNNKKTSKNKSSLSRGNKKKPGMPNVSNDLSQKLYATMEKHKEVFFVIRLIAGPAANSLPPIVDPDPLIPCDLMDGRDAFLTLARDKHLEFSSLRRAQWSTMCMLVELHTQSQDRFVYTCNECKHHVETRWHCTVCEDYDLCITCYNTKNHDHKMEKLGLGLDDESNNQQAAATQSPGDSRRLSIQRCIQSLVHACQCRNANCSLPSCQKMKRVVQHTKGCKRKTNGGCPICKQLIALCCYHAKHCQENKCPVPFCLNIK
Method: (A) Structures of compound 1a (spermidine CoA), and the acetylated side chain of a lysine residue of a polypeptide chain. (B) Inhibition of p300 acetylating activity as a function of 1a concentration. The catalytic domain of recombinant p300 (1284-1660) was assayed under steady state conditions using an N-terminal acetylated histone H4 peptide substrate, Ac-H4(1-19)-NH2. Closed circles represent experimental data points; plain line represents theoretical profile based on data reduction software (Prism) using a one site inhibition model. (C) In vitro assay of p300 activity using a 96-well assay kit (ActivMotif) and an H3 peptide substrate (5-23), according to manufacturer's instructions. Bars represent average of duplicates. […]
Reactions were set up in duplicate following the protocol supplied by the kit. […] Activity is measured in fluorescence units. […]
Assays were performed using the fluorescent HAT assay kit (Active Motif, Carlsbad, Calif.), an H3 peptide as substrate (residues 5-23), the p300 catalytic domain as enzyme, and 50 μM inhibitor in duplicate, according to the manufacturer's instructions. […] The reaction product, CoASH, was detected spectrophotometrically by reaction with 5,5′-dithiobis-2-nitrobenzoic acid (DTNB). Assays were carried out at 30° C. for 30 minutes, conditions which had previously been determined in kinetic assays to sufficient to achieve steady state.

DLD-1 colon cancer cells = assay: 96-well MTS viability assay, DLD-1; assay type: cell-based; details: single agent, 3 days
Method: as §1
(§2) DLD-1 cells or H358 cells were plated in 96-well plates at 2000 cells per well and treated with the indicated doses of (A) spm-3 or (B) spm-2. (C) Cell viability was measured by the MTS assay 3 days later. Similar experiment using GT41 fibroblasts with spm2 or spm 3. Each assay point represents an average of duplicates.

GT41F skin fibroblasts = assay: 96-well MTS viability assay, GT41F fibroblasts; assay type: cell-based, human; details: spm single agent, 3 days
Method: as §1, §2

Row | inhibition at 50 µM (p300 catalytic domain; 50 μM inhibitor, Active Motif 96-well assay, FIG. 9, read-out: inhibition of incorporation of acetyl groups into the H4 peptide substrate relative to untreated wells) [%] | inhibition of p300 HAT activity (p300 catalytic domain; FIG. 24, p300(965-1810), H3 peptide) | Compound | suppression of 3 day cell viability (H358 lung cancer cells; human) | viability at 50 µM (H358 cells; Homo sapiens, NCI-H358, 18 h, read-out: cell viability, single agent) [%] | cell viability, single agent (H358 cells; human, 24 h) [%] | suppression of cancer cell growth and viability (H358 lung cancer cells; spm single agent) | suppression of cancer cell growth and viability (DLD-1 colon cancer cells) | sensitivity of normal fibroblasts (GT41F skin fibroblasts)
1 | 88 | – | CC(C)(COP(=O)(O)OP(=O)(O)OC[C@H]1O[C@@H](n2cnc3c(N)ncnc32)[C@H](O)[C@@H]1OP(=O)(O)O)[C@@H](O)C(=O)NCCC(=O)NCCSCC(=O)NCCCNCCCCN [1a, spermidine[N1]-CoA] | 60-70% | ≥ 96 | ≥ 96 | – | – | –
2 | – | HAT inhibitors | CC(=O)NCCSCC(=O)NCCCNCCCCNCCCN [spm-3] | – | – | – | effective as single agents | effective as single agents | sensitivity similar to that of H358 lung cancer cells
